According to patent publication US20240210412A1, “SULFONYL-TRIAZOLE COMPOUNDS USEFUL AS LIGANDS AND INHIBITORS OF PROSTAGLANDIN REDUCTASE 2” (University of Virginia Patent Foundation, priority 2021, published 2024):

How the values were obtained:
Assay in all cases: SILAC LC-MS ABPP
Type in all cases: cell-based
Details in all cases: 25 μM 2 h, live DM93 cells
P35269 = target: T1, P35269 (Homo sapiens, UniProt P35269)
T1 construct: Probe-modified proteins from the soluble fraction were conjugated to a desthiobiotin-azide tag; endogenous in cells; host or cells: DM93 (SILAC)
Summary of the method: (§1)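 Readout is SILAC heavy/light LC-MS/MS quantification of HHS-475-labelled tyrosine peptides, reflecting blockade of probe labelling by ligand. DM93 cells were pretreated with 25 μM SuTEx ligand (heavy) or DMSO (light) for 2 h at 37 °C, then probed with 100 μM HHS-475 for 2 h.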

Q96C86 = target: T2, Q96C86 (Homo sapiens, UniProt Q96C86)
T2 construct: endogenous in cells; host or cells: DM93 cells (SILAC), treated live; soluble proteome analysed
Summary of the method: as §1

Q9BXS6 = target: T3, Q9BXS6 (Homo sapiens, UniProt Q9BXS6)
T3 construct: endogenous in cells; host or cells: DM93 cells (SILAC), treated live; soluble proteome analysed
Summary of the method: as §1

P51784 = target: T4, P51784 (Homo sapiens, UniProt P51784)
T4 construct: endogenous in cells; host or cells: DM93 cells (SILAC)
Summary of the method: as §1

P09874 = target: T5, P09874 (Homo sapiens, UniProt P09874)
T5 construct: endogenous in cells; host or cells: DM93 cells (SILAC)
T5 sequence (P09874 whole entry): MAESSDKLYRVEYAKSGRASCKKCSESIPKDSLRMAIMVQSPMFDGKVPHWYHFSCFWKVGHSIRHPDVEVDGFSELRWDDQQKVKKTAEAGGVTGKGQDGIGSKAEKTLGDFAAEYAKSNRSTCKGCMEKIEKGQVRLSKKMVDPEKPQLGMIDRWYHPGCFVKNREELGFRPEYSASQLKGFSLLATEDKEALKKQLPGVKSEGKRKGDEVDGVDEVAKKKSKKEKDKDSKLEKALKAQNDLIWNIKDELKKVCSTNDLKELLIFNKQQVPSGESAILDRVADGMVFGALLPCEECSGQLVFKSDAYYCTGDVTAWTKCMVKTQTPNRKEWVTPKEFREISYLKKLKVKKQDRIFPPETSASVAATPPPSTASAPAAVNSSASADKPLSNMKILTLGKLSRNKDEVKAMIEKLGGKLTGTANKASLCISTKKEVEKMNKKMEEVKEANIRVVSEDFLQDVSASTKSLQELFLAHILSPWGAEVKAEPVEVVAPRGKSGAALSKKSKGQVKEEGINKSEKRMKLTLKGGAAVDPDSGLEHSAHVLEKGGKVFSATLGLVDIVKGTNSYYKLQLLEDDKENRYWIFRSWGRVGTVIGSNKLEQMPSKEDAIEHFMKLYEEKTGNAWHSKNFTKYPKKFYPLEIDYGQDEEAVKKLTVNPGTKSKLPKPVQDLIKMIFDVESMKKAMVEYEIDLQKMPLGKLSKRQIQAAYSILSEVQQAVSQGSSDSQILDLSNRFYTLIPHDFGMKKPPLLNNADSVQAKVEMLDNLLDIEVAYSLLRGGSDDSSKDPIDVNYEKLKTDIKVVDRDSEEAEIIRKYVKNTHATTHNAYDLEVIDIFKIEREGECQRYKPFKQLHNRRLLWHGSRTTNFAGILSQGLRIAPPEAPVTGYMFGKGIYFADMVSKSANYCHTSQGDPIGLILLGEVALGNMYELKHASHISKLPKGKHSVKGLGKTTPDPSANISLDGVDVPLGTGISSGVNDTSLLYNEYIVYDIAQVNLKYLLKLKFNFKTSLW
Summary of the method: as §1

P52597 = target: T6, P52597 (Homo sapiens, UniProt P52597)
T6 construct: endogenous in cells; host or cells: DM93 cells (SILAC)
T6 sequence (P52597 whole entry): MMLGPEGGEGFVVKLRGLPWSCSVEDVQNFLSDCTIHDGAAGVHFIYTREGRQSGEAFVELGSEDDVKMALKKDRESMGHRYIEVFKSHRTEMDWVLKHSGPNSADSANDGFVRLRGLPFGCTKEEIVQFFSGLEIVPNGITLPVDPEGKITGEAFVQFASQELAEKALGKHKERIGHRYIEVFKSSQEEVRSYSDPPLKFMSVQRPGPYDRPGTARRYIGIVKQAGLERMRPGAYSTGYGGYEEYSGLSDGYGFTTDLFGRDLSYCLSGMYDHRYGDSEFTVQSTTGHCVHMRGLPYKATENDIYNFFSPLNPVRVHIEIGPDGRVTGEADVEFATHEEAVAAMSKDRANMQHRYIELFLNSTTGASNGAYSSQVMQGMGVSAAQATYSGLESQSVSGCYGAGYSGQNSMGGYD
Summary of the method: as §1

Q9Y5K6 = target: T7, Q9Y5K6 (Homo sapiens, UniProt Q9Y5K6)
T7 construct: endogenous in cells; host or cells: DM93 cells (SILAC)
Summary of the method: as §1

Q9BUJ2 = target: T8, Q9BUJ2 (Homo sapiens, UniProt Q9BUJ2)
T8 construct: endogenous in cells; host or cells: DM93 cells (SILAC), treated live; soluble proteome analysed
Summary of the method: as §1

Q09028 = target: T9, Q09028 (Homo sapiens, UniProt Q09028)
T9 construct: performing SuTEx compound screening directly in cells; endogenous in cells; host or cells: DM93 cells (SILAC)
T9 sequence (Q09028 whole entry): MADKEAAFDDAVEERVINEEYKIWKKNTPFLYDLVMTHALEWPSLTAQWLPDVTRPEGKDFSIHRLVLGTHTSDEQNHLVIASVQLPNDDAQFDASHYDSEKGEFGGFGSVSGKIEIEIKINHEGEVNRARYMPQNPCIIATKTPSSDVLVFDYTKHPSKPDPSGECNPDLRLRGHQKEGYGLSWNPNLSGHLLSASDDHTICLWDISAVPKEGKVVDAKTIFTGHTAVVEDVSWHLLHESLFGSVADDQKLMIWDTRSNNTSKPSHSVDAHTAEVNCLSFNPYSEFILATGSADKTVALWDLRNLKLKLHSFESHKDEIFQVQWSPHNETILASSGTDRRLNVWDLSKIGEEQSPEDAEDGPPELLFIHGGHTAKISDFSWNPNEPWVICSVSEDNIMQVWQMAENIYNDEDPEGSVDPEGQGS
Summary of the method: as §1

P46013 = target: T10, P46013 (Homo sapiens, UniProt P46013)
T10 construct: endogenous in cells; host or cells: DM93 cells (SILAC)
Summary of the method: as §1

P55084 = target: T11, P55084 (Homo sapiens, UniProt P55084)
T11 construct: endogenous in cells; host or cells: DM93 cells (SILAC)
Summary of the method: as §1

Q7Z6M1 = target: T12, Q7Z6M1 (Homo sapiens, UniProt Q7Z6M1)
T12 construct: endogenous in cells; host or cells: DM93 cells (SILAC), live-cell treatment
T12 sequence (Q7Z6M1 whole entry): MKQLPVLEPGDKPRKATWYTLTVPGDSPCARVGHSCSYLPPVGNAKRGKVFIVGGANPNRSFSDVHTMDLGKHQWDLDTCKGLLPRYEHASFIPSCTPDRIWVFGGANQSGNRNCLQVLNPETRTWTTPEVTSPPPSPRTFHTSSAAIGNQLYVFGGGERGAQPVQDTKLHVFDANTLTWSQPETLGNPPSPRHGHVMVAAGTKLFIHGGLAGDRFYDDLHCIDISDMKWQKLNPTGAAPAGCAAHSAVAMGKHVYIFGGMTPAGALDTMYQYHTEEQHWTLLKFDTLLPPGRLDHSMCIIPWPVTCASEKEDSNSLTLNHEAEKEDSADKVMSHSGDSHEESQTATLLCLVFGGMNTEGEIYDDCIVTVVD
Summary of the method: as §1

Q9NVE7 = target: T13, Q9NVE7 (Homo sapiens, UniProt Q9NVE7)
T13 construct: endogenous in cells; host or cells: DM93 cells (SILAC)
T13 sequence (Q9NVE7 whole entry): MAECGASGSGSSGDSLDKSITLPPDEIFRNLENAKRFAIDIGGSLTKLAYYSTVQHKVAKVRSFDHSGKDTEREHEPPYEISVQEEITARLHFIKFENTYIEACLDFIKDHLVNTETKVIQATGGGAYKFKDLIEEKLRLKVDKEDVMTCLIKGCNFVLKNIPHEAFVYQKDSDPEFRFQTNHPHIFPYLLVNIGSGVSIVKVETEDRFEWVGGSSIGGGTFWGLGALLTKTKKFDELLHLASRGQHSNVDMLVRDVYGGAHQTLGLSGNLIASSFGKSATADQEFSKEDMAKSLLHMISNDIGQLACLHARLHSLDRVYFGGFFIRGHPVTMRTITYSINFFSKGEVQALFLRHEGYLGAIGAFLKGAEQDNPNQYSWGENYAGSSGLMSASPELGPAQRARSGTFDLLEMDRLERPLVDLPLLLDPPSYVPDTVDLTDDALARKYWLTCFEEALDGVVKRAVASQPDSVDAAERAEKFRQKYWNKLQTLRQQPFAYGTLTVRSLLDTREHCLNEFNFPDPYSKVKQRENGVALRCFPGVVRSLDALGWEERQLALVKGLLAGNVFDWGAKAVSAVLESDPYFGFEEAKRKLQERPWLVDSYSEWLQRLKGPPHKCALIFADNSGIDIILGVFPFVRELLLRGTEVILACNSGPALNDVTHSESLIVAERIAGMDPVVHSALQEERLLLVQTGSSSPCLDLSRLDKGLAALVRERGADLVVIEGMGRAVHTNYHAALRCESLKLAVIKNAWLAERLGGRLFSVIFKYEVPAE
Summary of the method: as §1

P48147 = target: T14, P48147 (Homo sapiens, UniProt P48147)
T14 construct: endogenous in cells; host or cells: DM93 cells (SILAC)
Summary of the method: as §1

Q9UDY2 = target: T15, Q9UDY2 (Homo sapiens, UniProt Q9UDY2)
T15 construct: endogenous in cells; host or cells: DM93 cells (SILAC)
T15 sequence (Q9UDY2 whole entry): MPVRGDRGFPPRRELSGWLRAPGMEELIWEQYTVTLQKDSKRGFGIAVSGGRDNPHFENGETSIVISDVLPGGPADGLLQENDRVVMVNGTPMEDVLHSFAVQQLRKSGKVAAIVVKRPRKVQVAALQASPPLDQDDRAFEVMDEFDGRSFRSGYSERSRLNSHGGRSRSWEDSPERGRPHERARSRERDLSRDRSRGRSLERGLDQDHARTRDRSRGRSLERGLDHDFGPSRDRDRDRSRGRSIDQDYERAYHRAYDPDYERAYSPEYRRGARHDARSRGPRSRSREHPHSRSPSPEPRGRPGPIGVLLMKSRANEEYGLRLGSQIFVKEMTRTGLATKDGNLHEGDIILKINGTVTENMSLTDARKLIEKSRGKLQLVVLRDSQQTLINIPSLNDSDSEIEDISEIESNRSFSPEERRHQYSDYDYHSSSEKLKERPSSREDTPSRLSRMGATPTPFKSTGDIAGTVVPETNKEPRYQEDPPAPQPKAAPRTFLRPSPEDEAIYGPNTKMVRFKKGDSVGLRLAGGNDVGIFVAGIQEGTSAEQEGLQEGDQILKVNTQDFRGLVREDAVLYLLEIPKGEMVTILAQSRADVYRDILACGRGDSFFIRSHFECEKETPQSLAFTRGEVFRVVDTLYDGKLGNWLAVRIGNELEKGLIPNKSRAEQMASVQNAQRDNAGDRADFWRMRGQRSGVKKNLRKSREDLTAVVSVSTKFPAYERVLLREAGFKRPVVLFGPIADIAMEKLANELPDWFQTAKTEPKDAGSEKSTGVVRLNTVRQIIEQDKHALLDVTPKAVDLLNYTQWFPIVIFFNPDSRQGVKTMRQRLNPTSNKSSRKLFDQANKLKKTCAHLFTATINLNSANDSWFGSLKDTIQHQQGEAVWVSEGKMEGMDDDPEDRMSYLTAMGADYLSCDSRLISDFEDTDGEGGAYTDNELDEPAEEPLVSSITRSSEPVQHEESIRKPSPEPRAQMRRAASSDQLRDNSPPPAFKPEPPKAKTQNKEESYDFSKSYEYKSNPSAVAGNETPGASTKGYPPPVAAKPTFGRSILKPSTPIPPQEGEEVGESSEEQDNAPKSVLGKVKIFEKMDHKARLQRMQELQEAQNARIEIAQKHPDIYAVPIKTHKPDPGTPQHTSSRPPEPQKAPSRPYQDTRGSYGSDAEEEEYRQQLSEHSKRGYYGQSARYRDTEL
Summary of the method: as §1

Q9Y2W1 = target: T16, Q9Y2W1 (Homo sapiens, UniProt Q9Y2W1)
T16 construct: endogenous in cells; host or cells: DM93 cells (SILAC)
Summary of the method: as §1

P56945 = target: T17, P56945 (Homo sapiens, UniProt P56945)
T17 construct: Probe-modified proteins from the soluble fraction were conjugated to a desthiobiotin-azide tag; endogenous in cells; host or cells: DM93 cells (SILAC)
T17 sequence (P56945 whole entry): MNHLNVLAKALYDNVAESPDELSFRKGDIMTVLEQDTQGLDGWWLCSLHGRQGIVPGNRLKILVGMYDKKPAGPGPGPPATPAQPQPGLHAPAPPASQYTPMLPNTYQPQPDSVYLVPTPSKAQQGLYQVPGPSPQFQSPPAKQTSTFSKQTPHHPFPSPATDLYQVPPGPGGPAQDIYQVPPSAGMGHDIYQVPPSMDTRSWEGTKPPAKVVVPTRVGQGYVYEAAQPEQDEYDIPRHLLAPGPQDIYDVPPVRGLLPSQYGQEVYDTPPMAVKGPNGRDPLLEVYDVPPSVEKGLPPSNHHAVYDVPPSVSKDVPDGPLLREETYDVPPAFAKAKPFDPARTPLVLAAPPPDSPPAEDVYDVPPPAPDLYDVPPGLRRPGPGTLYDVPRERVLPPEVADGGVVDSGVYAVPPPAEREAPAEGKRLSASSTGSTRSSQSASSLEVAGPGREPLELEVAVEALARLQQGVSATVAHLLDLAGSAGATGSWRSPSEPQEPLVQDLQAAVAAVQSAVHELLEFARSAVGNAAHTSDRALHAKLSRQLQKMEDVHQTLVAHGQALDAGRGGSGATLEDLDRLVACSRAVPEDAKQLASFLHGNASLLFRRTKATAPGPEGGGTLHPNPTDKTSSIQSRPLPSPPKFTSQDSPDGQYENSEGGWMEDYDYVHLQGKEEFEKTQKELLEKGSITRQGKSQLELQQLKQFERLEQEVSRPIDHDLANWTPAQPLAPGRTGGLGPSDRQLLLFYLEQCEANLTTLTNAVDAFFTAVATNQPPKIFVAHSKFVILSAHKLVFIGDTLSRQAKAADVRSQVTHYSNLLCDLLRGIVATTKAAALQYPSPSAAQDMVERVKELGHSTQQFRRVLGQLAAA
Summary of the method: as §1

O=C(c1ccc(S(=O)(=O)n2cncn2)cc1)N1CCC(c2ccccc2)CC1 [HHS-0701, (4-((1H-1,2,4-triazol-1-yl)sulfonyl)phenyl)(4-phenylpiperidin-1-yl)methanone]
liganded tyrosine site 124 (P35269): HHS0701.Y (tyrosine sites that showed >80% reductions (SR >5) in probe labeling in cells treated with compounds (liganded sites))

O=C(NC1CC1)c1ccc(S(=O)(=O)n2cncn2)cc1 [HHS-0101, 4-((1H-1,2,4-triazol-1-yl)sulfonyl)-N-cyclopropylbenzamide]
liganded tyrosine site 116 (Q96C86): HHS0101.Y|HHS0401.Y (tyrosine sites that showed >80% reductions (SR >5) in probe labeling in cells treated with compounds (liganded sites))
liganded tyrosine site 165 (Q9BXS6): HHS0101.Y (tyrosine sites that showed >80% reductions (SR >5) in probe labeling in cells treated with compounds (liganded sites))
liganded tyrosine site 396 (P51784): HHS0101.Y (tyrosine sites that showed >80% reductions (SR >5) in probe labeling in cells treated with compounds (liganded sites))
liganded tyrosine site 645 (P09874): HHS0101.Y (tyrosine sites that showed >80% reductions (SR >5) in probe labeling in cells treated with compounds (liganded sites))
liganded tyrosine site 210 (P52597): HHS0101.Y|HHS0201.Y|HHS0701.Y (tyrosine sites that showed >80% reductions (SR >5) in probe labeling in cells treated with compounds (liganded sites))
liganded tyrosine site 298 (P52597): HHS0101.Y|HHS0701.Y (tyrosine sites that showed >80% reductions (SR >5) in probe labeling in cells treated with compounds (liganded sites))
liganded tyrosine site 361 (Q9Y5K6): HHS0101.Y|HHS0201.Y|HHS0401.Y (tyrosine sites that showed >80% reductions (SR >5) in probe labeling in cells treated with compounds (liganded sites))

O=C(NC1CCCCC1)c1ccc(S(=O)(=O)n2cncn2)cc1 [HHS-0301, 4-((1H-1,2,4-triazol-1-yl)sulfonyl)-N-cyclohexylbenzamide]
liganded tyrosine site 111 (Q9BUJ2): HHS0301.Y|HHS0701.Y (tyrosine sites that showed >80% reductions (SR >5) in probe labeling in cells treated with compounds (liganded sites))
liganded tyrosine site 154 (Q09028): HHS0301.Y|HHS0701.Y (tyrosine sites that showed >80% reductions (SR >5) in probe labeling in cells treated with compounds (liganded sites))

O=C(NCc1ccccc1)c1ccc(S(=O)(=O)n2cncn2)cc1 [HHS-0401, 4-((1H-1,2,4-triazol-1-yl)sulfonyl)-N-benzylbenzamide]
liganded tyrosine site 340 (P46013): HHS0401.Y|HHS0701.Y (tyrosine sites that showed >80% reductions (SR >5) in probe labeling in cells treated with compounds (liganded sites))
liganded tyrosine site 402 (P55084): HHS0401.Y (tyrosine sites that showed >80% reductions (SR >5) in probe labeling in cells treated with compounds (liganded sites))
liganded tyrosine site 87 (Q7Z6M1): HHS0401.Y|HHS0701.Y (tyrosine sites that showed >80% reductions (SR >5) in probe labeling in cells treated with compounds (liganded sites))

O=C(NCC1CC1)c1ccc(S(=O)(=O)n2cncn2)cc1 [HHS-0201, 4-((1H-1,2,4-triazol-1-yl)sulfonyl)-N-(cyclopropylmethyl)benzamide]
liganded tyrosine site 338 (Q9NVE7): HHS0201.Y|HHS0401.Y (tyrosine sites that showed >80% reductions (SR >5) in probe labeling in cells treated with compounds (liganded sites))
liganded tyrosine site 473 (P48147): HHS0201.Y (tyrosine sites that showed >80% reductions (SR >5) in probe labeling in cells treated with compounds (liganded sites))
liganded tyrosine site 423 (Q9UDY2): HHS0201.Y|HHS0301.Y (tyrosine sites that showed >80% reductions (SR >5) in probe labeling in cells treated with compounds (liganded sites))
liganded tyrosine site 344 (Q9Y2W1): HHS0201.Y|HHS0301.Y (tyrosine sites that showed >80% reductions (SR >5) in probe labeling in cells treated with compounds (liganded sites))
liganded tyrosine site 267 (P56945): HHS0201.Y (tyrosine sites that showed >80% reductions (SR >5) in probe labeling in cells treated with compounds (liganded sites))
